Results from PMC10046369, “Low-Affinity/High-Selectivity Dopamine Transport Inhibition Sufficient to Rescue Cognitive Functions in the Aging Rat” (Biomolecules, 2023).

Assays:
Experiment in all cases: biochemical
Parameters in all cases: KINOMEscan competition binding panel, per cent of control
Conditions in all cases: read-out: %Ctrl @ 2800nM
[1] = target: T1, ABL1(H396P)-nonphosphorylated (Homo sapiens, UniProt P00519, H396P)
T1 construct: nonphosphorylated
In short: (§1)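 Values are expressed as percent of control, calculated as ((test − positive control)/(negative control − positive control)) × 100, so lower numbers mean stronger hits. Binding was measured by KINOMEscan competition assay in a 450-kinase human panel including disease mutants, using the contractor's validated protocol.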

[2] = target: ACVRL1 (Homo sapiens, UniProt P37023)
In short: as §1

[3] = target: T2, AMPK-alpha1 (Homo sapiens, UniProt Q13131)
T2 construct: gene PRKAA1
In short: as §1

[4] = target: T3, ARK5 (Homo sapiens, UniProt O60285)
T3 construct: gene NUAK1
In short: as §1

[5] = target: T4, ASK2 (Homo sapiens, UniProt O95382)
T4 construct: gene MAP3K6
In short: as §1

[6] = target: T5, CDC2L2 (Homo sapiens, UniProt Q9UQ88)
T5 construct: gene CDK11A
In short: as §1

[7] = target: EPHB4 (Homo sapiens, UniProt P54760)
In short: as §1

[8] = target: T6, ERK5 (Homo sapiens, UniProt Q13164)
T6 construct: gene MAPK7
In short: as §1

[9] = target: FLT3(ITD) (Homo sapiens, UniProt P36888, ITD)
In short: as §1

[10] = target: GRK1 (Homo sapiens, UniProt Q15835)
In short: as §1

[11] = target: HASPIN (Homo sapiens, UniProt Q8TF76)
In short: as §1

[12] = target: T7, IKK-beta (Homo sapiens, UniProt O14920)
T7 construct: gene IKBKB
In short: as §1

[13] = target: T8, JNK2 (Homo sapiens, UniProt P45984)
T8 construct: gene MAPK9
In short: as §1

[14] = target: MAK (Homo sapiens, UniProt P20794)
In short: as §1

[15] = target: T9, MEK2 (Homo sapiens, UniProt P36507)
T9 construct: gene MAP2K2
In short: as §1

[16] = target: T10, MST4 (Homo sapiens, UniProt Q9P289)
T10 construct: gene STK26
In short: as §1

[17] = target: MYO3A (Homo sapiens, UniProt Q8NEV4)
In short: as §1

[18] = target: NEK9 (Homo sapiens, UniProt Q8TD19)
In short: as §1

[19] = target: PIK3C2G (Homo sapiens, UniProt O75747)
In short: as §1

[20] = target: PLK3 (Homo sapiens, UniProt Q9H4B4)
In short: as §1

[21] = target: PLK4 (Homo sapiens, UniProt O00444)
In short: as §1

[22] = target: PRKD1 (Homo sapiens, UniProt Q15139)
In short: as §1

[23] = target: RAF1 (Homo sapiens, UniProt P04049)
In short: as §1

[24] = target: T11, RPS6KA4(Kin.Dom.1-N-terminal) (Homo sapiens, UniProt O75676)
T11 construct: Kin.Dom.1-N-terminal
In short: as §1

[25] = target: T12, SgK110 (Homo sapiens, UniProt P0C264)
T12 construct: gene SBK3
In short: as §1

[26] = target: TNNI3K (Homo sapiens, UniProt Q59H18)
In short: as §1

T6 sequence (Q13164 whole entry): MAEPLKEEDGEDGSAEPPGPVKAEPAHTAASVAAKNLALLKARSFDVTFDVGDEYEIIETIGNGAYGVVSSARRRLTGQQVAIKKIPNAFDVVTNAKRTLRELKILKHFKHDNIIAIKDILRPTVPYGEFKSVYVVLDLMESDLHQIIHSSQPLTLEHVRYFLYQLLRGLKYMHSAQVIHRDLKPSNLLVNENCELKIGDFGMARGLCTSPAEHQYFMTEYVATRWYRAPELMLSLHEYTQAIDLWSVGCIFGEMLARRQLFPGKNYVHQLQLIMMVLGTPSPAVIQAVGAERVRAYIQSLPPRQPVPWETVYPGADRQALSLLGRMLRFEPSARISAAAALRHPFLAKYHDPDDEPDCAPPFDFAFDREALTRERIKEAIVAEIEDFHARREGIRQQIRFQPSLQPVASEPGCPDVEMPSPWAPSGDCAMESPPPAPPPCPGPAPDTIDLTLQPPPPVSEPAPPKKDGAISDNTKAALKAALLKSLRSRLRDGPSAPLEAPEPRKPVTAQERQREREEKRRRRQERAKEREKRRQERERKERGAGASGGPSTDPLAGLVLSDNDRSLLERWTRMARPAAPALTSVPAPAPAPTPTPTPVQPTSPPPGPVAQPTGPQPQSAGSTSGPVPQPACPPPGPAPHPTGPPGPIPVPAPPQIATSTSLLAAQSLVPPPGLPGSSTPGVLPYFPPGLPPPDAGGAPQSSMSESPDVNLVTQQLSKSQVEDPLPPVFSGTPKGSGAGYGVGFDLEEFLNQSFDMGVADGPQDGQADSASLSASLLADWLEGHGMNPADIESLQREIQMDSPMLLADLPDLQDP
Sequence of HASPIN (Q8TF76 whole entry): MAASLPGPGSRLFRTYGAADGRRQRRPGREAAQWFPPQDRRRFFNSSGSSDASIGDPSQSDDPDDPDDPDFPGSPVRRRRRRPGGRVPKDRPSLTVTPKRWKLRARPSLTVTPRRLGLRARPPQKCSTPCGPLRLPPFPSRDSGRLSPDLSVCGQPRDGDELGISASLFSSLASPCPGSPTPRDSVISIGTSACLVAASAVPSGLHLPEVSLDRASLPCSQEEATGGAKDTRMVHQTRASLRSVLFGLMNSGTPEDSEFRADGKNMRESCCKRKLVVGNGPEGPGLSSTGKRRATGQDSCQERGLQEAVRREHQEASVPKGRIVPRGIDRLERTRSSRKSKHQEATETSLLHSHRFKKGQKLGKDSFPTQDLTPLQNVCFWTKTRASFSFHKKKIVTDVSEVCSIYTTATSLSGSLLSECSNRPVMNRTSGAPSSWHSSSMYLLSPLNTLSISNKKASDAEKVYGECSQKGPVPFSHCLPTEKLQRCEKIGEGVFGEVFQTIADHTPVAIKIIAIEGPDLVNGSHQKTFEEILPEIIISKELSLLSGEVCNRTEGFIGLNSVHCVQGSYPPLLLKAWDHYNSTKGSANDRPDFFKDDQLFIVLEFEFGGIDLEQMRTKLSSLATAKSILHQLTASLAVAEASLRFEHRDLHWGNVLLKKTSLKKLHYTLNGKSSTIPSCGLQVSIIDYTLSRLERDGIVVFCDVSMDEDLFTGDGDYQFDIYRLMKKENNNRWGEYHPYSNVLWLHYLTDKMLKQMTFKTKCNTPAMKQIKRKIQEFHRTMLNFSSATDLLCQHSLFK
Sequence of PLK4 (O00444 whole entry): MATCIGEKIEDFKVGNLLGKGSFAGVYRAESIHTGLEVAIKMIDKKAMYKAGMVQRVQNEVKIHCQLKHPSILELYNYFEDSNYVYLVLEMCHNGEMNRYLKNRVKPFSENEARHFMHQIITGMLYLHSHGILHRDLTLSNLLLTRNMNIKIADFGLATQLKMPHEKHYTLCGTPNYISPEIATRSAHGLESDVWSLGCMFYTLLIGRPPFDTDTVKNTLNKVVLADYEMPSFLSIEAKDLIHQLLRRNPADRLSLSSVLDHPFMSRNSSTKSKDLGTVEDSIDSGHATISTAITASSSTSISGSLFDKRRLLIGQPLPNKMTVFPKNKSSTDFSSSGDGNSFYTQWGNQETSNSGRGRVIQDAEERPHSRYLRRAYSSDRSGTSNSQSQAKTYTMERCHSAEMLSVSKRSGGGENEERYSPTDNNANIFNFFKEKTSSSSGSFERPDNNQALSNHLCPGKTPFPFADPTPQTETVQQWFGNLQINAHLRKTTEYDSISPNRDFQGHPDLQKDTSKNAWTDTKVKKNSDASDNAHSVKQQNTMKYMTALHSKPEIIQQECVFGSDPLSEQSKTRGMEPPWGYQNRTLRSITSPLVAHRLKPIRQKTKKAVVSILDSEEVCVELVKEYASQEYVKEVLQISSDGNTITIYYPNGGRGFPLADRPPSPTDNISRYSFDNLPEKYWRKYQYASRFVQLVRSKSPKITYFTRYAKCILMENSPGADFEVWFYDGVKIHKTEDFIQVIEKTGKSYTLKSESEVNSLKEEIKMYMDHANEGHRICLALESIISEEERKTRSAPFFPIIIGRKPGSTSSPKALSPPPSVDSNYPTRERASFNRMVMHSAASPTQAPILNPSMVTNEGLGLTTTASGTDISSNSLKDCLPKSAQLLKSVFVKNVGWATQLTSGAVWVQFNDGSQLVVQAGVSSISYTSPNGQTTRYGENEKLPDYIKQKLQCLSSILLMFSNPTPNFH
Sequence of RAF1 (P04049 whole entry): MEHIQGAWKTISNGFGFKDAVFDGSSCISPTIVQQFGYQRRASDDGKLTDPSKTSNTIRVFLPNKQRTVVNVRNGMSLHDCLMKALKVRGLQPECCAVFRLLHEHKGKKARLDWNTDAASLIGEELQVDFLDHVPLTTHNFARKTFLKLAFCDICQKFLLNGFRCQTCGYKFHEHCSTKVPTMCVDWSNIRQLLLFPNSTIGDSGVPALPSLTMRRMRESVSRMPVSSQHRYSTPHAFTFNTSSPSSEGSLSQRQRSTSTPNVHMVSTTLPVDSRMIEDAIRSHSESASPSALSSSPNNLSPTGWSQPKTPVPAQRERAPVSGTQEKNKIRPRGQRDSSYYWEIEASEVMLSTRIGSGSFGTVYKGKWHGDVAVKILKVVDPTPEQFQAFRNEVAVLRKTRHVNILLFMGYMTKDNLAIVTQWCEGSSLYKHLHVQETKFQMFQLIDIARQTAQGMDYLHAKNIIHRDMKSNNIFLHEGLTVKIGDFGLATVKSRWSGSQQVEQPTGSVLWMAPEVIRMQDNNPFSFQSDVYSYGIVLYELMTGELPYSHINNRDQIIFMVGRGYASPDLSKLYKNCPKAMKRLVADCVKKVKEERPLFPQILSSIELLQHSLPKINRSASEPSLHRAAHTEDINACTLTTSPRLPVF
T9 sequence (P36507 whole entry): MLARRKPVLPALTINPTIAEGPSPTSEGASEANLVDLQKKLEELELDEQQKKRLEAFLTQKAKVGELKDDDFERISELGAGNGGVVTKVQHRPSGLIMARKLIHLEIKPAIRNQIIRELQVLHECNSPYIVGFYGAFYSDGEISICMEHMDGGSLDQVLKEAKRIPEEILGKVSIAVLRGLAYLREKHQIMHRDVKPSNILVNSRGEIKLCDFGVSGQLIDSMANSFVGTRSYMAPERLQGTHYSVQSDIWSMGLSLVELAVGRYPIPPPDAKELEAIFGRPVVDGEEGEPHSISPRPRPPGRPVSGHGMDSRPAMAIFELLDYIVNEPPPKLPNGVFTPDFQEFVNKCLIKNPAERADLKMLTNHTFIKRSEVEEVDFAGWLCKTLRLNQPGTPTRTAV
T2 sequence (Q13131 whole entry): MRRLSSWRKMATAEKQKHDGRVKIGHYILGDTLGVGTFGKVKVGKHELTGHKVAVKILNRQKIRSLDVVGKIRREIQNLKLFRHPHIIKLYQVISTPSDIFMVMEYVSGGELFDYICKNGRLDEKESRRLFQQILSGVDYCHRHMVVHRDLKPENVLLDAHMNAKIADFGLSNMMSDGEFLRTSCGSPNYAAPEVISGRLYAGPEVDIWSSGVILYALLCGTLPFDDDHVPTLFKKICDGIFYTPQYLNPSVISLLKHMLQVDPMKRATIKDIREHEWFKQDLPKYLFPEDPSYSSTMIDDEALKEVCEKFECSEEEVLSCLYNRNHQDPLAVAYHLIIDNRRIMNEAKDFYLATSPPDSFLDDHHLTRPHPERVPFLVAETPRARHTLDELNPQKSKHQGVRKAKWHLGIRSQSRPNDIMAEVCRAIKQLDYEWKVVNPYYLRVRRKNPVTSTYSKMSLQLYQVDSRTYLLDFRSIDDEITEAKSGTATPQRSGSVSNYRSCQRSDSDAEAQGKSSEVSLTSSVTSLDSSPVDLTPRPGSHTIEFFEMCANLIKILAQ
T7 sequence (O14920 whole entry): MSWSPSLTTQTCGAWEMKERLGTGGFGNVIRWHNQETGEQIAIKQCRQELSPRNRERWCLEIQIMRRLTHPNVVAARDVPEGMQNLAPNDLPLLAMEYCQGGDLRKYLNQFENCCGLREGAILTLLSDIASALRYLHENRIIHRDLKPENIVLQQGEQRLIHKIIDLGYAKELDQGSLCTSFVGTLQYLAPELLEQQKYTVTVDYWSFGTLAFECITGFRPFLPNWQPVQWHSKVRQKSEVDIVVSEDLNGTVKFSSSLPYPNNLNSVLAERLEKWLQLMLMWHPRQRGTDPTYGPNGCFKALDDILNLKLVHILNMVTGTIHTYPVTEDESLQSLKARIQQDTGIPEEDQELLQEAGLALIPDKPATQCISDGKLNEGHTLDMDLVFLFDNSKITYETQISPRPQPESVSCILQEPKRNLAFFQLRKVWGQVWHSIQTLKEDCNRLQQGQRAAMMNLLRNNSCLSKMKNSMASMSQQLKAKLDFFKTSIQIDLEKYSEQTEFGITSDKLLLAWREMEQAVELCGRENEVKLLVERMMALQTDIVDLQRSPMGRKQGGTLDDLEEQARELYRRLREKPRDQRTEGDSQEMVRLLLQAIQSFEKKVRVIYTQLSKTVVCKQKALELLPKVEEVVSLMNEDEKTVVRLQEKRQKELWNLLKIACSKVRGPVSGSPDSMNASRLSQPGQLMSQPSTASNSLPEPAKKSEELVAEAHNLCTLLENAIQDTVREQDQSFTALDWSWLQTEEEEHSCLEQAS

With [O-][S@@+](Cc1cncs1)C(c1ccccc1)c1ccccc1 [S-CE-123, (S)-5-((Benzhydrylsulfinyl)Methyl)Thiazole] the remaining binding at 2.8 µM [1] was 86%, the remaining binding at 2.8 µM [2] was 84% and the remaining binding at 2.8 µM [3] was 92%. For the same compound, the remaining binding at 2.8 µM [4] was 100%, the remaining binding at 2.8 µM [5] was 100% and the remaining binding at 2.8 µM [6] was 98%. For the same compound, the remaining binding at 2.8 µM [7] was 95%, the remaining binding at 2.8 µM [8] was 91% and the remaining binding at 2.8 µM [9] was 100%. It also gave a remaining binding at 2.8 µM [10] of 100%, a remaining binding at 2.8 µM [11] of 95% and a remaining binding at 2.8 µM [12] of 96%. For the same compound, the remaining binding at 2.8 µM [13] was 90%, the remaining binding at 2.8 µM [14] was 94% and the remaining binding at 2.8 µM [15] was 93%. It also gave a remaining binding at 2.8 µM [16] of 100%, a remaining binding at 2.8 µM [17] of 96% and a remaining binding at 2.8 µM [18] of 100%. It also gave a remaining binding at 2.8 µM [19] of 66%, a remaining binding at 2.8 µM [20] of 95% and a remaining binding at 2.8 µM [21] of 89%. The remaining binding at 2.8 µM [22] was 92%, the remaining binding at 2.8 µM [23] was 76% and the remaining binding at 2.8 µM [24] was 100%. The remaining binding at 2.8 µM [25] was 72% and the remaining binding at 2.8 µM [26] was 100%.
